Reference: PMC11796312, “Multifunctional, Fluorene‐Based Modulator of Cholinergic and GABAergic Neurotransmission as a Novel Drug Candidate for Palliative Treatment of Alzheimer's Disease” (Angewandte Chemie (International Ed. in English), 2024)
Several values for one entry are separate records, joined by “and”; a condition that tells them apart may be missing. Equal values may be shown once. Entries after “also recorded” stand apart in the source; their conditions may differ.

Columns and labels:
SIM-A9 cells = assay: LC-MS determination of total MDA, SIM-A9; type: cell-based, mouse; conditions: all time intervals
[1] = Acute toxicity study i.p. (MTD, biochemistry, histopathology); type: in vivo, mice; parameters: key to prostration / tremor / convulsions / hyper/hypoventilation / drop of eyelids / ataxia / stooped posture: mild (+); moderate (++); severe (+++); conditions: both sexes, ICR-CD1, mouse, in vivo, ip, male and female mice; read-out: maximal tolerated dose (MTD)
Procedure: (§1) Toxicology and pharmacokinetic in vivo study
(§2) ICR-CD1 mice weighing 20–25 g were purchased from Velaz (Prague, Czech Republic).
(§3) They were kept in an air-conditioned room with the light from 07:00 to 19:00 hours and were allowed access to standard food and tap water ad libitum. The mice were divided into groups […]
(§4) Ethical approval statement
(§5) The experimental animals were handled under the supervision of the Ethics Committee of the […]
(§6) 706288/2023-1457) and the treatment of animals was in full accordance with ethical standards laid down in respective Czech and EU regulations.
(§7) Design of in vivo experiments
(§8) Acute toxicity study – Maximal tolerated dose, biochemical analysis, and histopathologic […]
(§9) Mice (ICR-CD1, Velaz, Prague, Czech Republic) were randomly assigned to the experimental groups of two males and two females per one applied dose of 6. 6 was administered intraperitoneally (i.p., 0.1 mL/10 g of animal weight; 1% Tween 80). Several doses were administered to identify the toxic profile of tested compounds and establish the Maximal Tolerated Dose (MTD, i.p.). Treated animals were intensively observed for signs of toxicity, such as respiratory, cardiovascular, and nervous system disability. Weight loss or reduced food consumption was assessed according to the FELASA classification[39] in the first two hours and then periodically for the subsequent 46 hours. The toxicity signs were classified according to a previously published study.[40]
(§10) All animals surviving the 48 hours were deeply euthanized by CO2 and subjected to basic macroscopic necropsy. The blood was collected for biochemical analysis, and selected organs (kidney and liver) were collected for histopathologic examination.
(§11) Venous blood was collected into heparinized tubes (Scanlab Systems, Prague, Czech Republic). Plasma was subsequently separated (3,000 × g for 10 min, 4 °C) using centrifuge U-320R (Boeco, Hamburg, Germany). The concentration of urea and creatinine and the activity of alanine aminotransferase (ALT), aspartate aminotransferase (AST), alkaline […]
(§12) phosphatase (ALP), amylase, and lactate dehydrogenase (LDH) were measured in the accredited biochemical laboratory of the Department of Clinical Biochemistry and Diagnostics, University Hospital, Hradec Kralove, Czech Republic. Statistical data analysis was performed through IBM SPSS Statistics version 26 (IBM, Armonk, NY, USA) using the Kolmogorov-Smirnov and Shapiro-Wilk tests to test data normality. Due to normally distributed data, the Student´s t-test was used to assess the differences compared with the control group (p ≤ 0.05).
(§13) Samples of the liver and kidney were used for standard histopathological examination. Organs were fixed with 10% neutral buffered formalin (Bamed s.r.o., Ceske Budejovice, Czech Republic), histologically processed, and stained with hematoxylin and eosin (both Merck) according to Pejchal et al.[41] The histopathological changes were evaluated using a BX-51 microscope (Olympus, Tokyo, Japan). […]
(§14) The time intervals
(§15) PK studies). The samples were centrifuged at 3,000 × g for 10 min (10 °C), and the plasma samples were stored at -80 °C until the HPLC analysis.

ICR-CD1 mice = assay: as above; type: in vivo; parameters: key to prostration / tremor / convulsions / hyper/hypoventilation / drop of eyelids / ataxia / stooped posture: mild (+); moderate (++); severe (+++); conditions: for stooped posture: Female 1
Procedure: as §1, §2, §3, §4, §5, §6, §7, §8, §9, §10, §11, §12, §13, §14, §15

[2] = 20 mg/kg i.p., Male 1, Female 1, Female 2
[3] = 40 mg/kg i.p., Male 1, Female 1, Female 2
[4] = 60 mg/kg i.p., Male 1, Male 2, Female 2
[5] = female mice, 10 mg/kg, Female 1, Female 2
[6] = female mice, 20 mg/kg, Female 1, Female 2
[7] = female mice, 40 mg/kg, Female 1, Female 2
[8] = female mice, 60 mg/kg, Female 1, Female 2
[9] = male mice, 10 mg/kg i.p., Male 1, Male 2
[10] = male mice, 20 mg/kg i.p., Male 1
[11] = male mice, 20 mg/kg i.p., Male 1, Male 2
[12] = male mice, 40 mg/kg i.p., Male 1, Male 2
[13] = male mice, 60 mg/kg i.p., Male 1, Male 2
[14] = male mice, 60 mg/kg i.p., Male 1, Male 2, 60 mg/kg

## O[C@H](CNCC1CC1)[C@H](Cc1ccccc1)NC1c2ccccc2-c2ccccc21 [Compound 6]
SIM-A9 cells
  increase in intracellular level of MDA: no significant increase
[1]
  MTD at 48 h: 10 mg/kg
ICR-CD1 mice; 10 mg/kg i.p.
  signs of poisoning at MTD: mild to moderate signs of poisoning may occur
ICR-CD1 mice; 10 mg/kg i.p., 48 h
  ALP, plasma: 68.4 ± 27.2 U/L
  ALT, plasma: 29.0 ± 6.5 U/L
  AST, plasma: 56.8 ± 6.6 U/L
  Amylase, plasma: 2960 ± 500 U/L and 2955 ± 501 U/L
  LDH, plasma: 275 ± 94 U/L
  Urea, plasma: 33.8 ± 8.2 mg/dL
ICR-CD1 mice; 10 mg/kg i.p., 48 h, Student's t-test
  blood biochemistry vs control: No significant differences
ICR-CD1 mice; 10 mg/kg i.p., 48 h, table lines in order Male 1, Male 2, Female 1, Female 2
  Necropsy: no macroscopic pathology; also recorded: no findings; also recorded: mild hyperemia in the peritoneal cavity
ICR-CD1 mice; 10 mg/kg i.p., table lines in order Male 1, Male 2, Female 1, Female 2
  Histopathological findings, liver and renal tissue: no tissue damage; also recorded: dg: mild peritoneal irritation; also recorded: no findings
ICR-CD1 mice; 20 mg/kg i.p., N = 3
  ALP, plasma: 60.4 ± 28.6 U/L
  ALT, plasma: 27.0 ± 15.6 U/L
  AST, plasma: 55.6 ± 6.7 U/L
  Amylase, plasma: 3129 ± 444 U/L
  LDH, plasma: 223 ± 38 U/L
  Urea, plasma: 31.8 ± 6.7 mg/dL
ICR-CD1 mice; [2]
  Histopathological findings, liver and renal tissue: dg: peritonitis
  Necropsy: moderate hyperemia in the abdominal cavity
ICR-CD1 mice; 40 mg/kg i.p., N = 3
  ALP, plasma: 63.5 ± 26.9 U/L
  ALT, plasma: 57.1 ± 16.5 U/L
  AST, plasma: 82.4 ± 54.0 U/L
  Amylase, plasma: 3485 ± 894 U/L
  LDH, plasma: 511 ± 423 U/L
  Urea, plasma: 93.6 ± 60.4 mg/dL
ICR-CD1 mice; [3]
  Histopathological findings, liver and renal tissue: dg: severe peritonitis
  Necropsy: dilatation of small and large intestine loops; also recorded: dilatation of the stomach, small and large
ICR-CD1 mice; 60 mg/kg i.p., N = 3
  ALP, plasma: 71.4 ± 23.4 U/L
  ALT, plasma: 230.4 ± 140.7 U/L
  AST, plasma: 318.0 ± 213.7 U/L
  Amylase, plasma: 3723 ± 448 U/L
  LDH, plasma: 1101 ± 562 U/L
  Urea, plasma: 142.9 ± 145.2 mg/dL
ICR-CD1 mice; [4]
  Histopathological findings, liver and renal tissue: dg: severe peritonitis
  Necropsy: dilatation of small and large intestine loops
ICR-CD1 mice; female mice, 10 mg/kg i.p., lines in order Female 1, Female 2
  hyper/hypoventilation: +
ICR-CD1 mice; [5]
  drop of eyelids: +
  prostration: +
  tremor: + and ++
ICR-CD1 mice; female mice, 10 mg/kg, Female 2
  convulsions: +
ICR-CD1 mice; female mice, 20 mg/kg
  stooped posture: +
ICR-CD1 mice; [6]
  drop of eyelids: +
  hyper/hypoventilation: +
  prostration: ++
  tremor: + and ++
  weight at 24 h (%): -4.2% and -1.8%
  weight at 48 h (%): -6.5% and 0.0%
ICR-CD1 mice; [7]
  drop of eyelids: +
  hyper/hypoventilation: ++
  tremor: +
  weight at 24 h (%): -4.5% and -3.5%
  weight at 48 h (%): -9.1% and -7.1%
ICR-CD1 mice; female mice, 60 mg/kg
  stooped posture: +
ICR-CD1 mice; [8]
  drop of eyelids: +
  hyper/hypoventilation: ++
  tremor: +
  weight at 24 h (%): -5.0% and -6.6%
ICR-CD1 mice; female mice, 60 mg/kg, Female 1, before the 48-hour check-up
  mortality: died overnight
ICR-CD1 mice; female mice, 60 mg/kg, Female 2
  weight at 48 h (%): -7.5%
ICR-CD1 mice; [9]
  prostration: +
  tremor: +
ICR-CD1 mice; male mice, 10 mg/kg i.p., lines in order Male 1, Male 2
  hyper/hypoventilation: +
ICR-CD1 mice; [10]
  weight at 24 h (%): -0.2%
  weight at 48 h (%): +1.0%
ICR-CD1 mice; [11]
  ataxia: +
  drop of eyelids: +
  hyper/hypoventilation: +
  prostration: ++
  tremor: +
ICR-CD1 mice; male mice, 20 mg/kg i.p., Male 2
  convulsions: +++
ICR-CD1 mice; male mice, 20 mg/kg i.p., Male 2, before the 24-hour check-up
  mortality: died overnight
ICR-CD1 mice; male mice, 40 mg/kg i.p., Male 1
  weight at 48 h (%): -6.7%
ICR-CD1 mice; [12]
  drop of eyelids: +
  hyper/hypoventilation: ++
  prostration: ++
  tremor: +
ICR-CD1 mice; male mice, 40 mg/kg i.p., Male 1, Male 2, 40 mg/kg
  weight at 24 h (%): -6.1% and -7.0%
ICR-CD1 mice; male mice, 40 mg/kg i.p., Male 2, before the 48-hour check-up
  mortality: died overnight
ICR-CD1 mice; male mice, 60 mg/kg i.p., Male 1
  ataxia: +
ICR-CD1 mice; [13]
  drop of eyelids: +
  hyper/hypoventilation: ++
  prostration: +++
  tremor: +
ICR-CD1 mice; [14]
  weight at 24 h (%): -3.6% and -10.5%
  weight at 48 h (%): -16.0% and -15.6%
